# Results reported in patent US12492193B2, “Pyrazole derivatives for the treatment of cystic fibrosis” (Fondazione Istituto Italiano Di Tecnologia, priority 2017, dated 2025).
# Biological target: T1, mutant CFTR (Homo sapiens, UniProt P13569, DEL508-508)
# T1 construct: expressed in transfected cells
# Assay: Fluorescence (HS-YFP) assay for CFTR activity, corrector assay
# Format: cell-based
# Details: CFBE41o- and FRT cells with stable expression of mutant CFTR, 24 h compound treatment
# Procedure, shortened: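 CFBE41o- or FRT cells stably expressing mutant CFTR and HS-YFP were exposed to compounds for 24 h (corrector mode), then stimulated 30 min at 37° C with forskolin (20 μM) plus genistein (50 μM). YFP quenching after 100 mM iodide injection; initial slope from exponential fit of final 10 s; EC50 reported.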
# T1 sequence (P13569 with tags, fused parts or gaps DEL508-508): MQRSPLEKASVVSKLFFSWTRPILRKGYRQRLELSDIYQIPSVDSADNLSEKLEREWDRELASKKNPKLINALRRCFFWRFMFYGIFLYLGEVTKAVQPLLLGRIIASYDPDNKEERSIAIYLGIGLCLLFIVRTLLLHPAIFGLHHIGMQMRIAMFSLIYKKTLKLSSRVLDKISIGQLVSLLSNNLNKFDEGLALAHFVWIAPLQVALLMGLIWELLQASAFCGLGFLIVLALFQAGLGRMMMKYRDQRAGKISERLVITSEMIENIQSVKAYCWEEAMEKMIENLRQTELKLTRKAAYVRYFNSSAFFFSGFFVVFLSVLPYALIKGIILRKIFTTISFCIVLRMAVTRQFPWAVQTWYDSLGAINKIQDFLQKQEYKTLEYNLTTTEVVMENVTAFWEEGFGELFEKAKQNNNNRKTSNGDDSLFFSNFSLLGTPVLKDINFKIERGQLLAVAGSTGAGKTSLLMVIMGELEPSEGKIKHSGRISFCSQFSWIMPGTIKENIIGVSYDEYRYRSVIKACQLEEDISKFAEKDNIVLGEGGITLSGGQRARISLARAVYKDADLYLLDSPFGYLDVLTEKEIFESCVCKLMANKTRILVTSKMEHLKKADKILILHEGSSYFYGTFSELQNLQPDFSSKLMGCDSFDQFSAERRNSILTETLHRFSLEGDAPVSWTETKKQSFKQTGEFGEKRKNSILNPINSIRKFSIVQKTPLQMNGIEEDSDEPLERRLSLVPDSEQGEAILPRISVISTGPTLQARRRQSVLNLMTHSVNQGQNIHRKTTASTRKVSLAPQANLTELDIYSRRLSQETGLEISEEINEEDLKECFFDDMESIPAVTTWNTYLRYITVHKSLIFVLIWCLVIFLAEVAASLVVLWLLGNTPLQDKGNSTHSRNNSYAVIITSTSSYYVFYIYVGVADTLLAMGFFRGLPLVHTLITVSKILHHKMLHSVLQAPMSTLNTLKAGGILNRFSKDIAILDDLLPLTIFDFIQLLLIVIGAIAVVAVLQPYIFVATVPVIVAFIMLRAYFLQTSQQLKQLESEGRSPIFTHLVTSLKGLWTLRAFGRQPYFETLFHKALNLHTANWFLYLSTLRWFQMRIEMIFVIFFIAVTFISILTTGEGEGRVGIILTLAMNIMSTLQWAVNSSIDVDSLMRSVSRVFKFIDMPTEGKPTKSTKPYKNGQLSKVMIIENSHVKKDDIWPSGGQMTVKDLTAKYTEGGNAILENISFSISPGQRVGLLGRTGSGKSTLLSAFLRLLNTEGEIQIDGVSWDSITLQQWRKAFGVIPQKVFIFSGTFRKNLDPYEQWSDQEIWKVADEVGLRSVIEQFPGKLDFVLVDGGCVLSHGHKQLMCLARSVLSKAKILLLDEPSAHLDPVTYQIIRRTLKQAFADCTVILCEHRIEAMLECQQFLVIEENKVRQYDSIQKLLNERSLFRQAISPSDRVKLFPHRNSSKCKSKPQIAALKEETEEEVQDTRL
row,Compound,EC50
1,"CCOC(=O)c1c(Cl)c(C)nn1-c1cccc(C(=O)N(C)c2ccc3c(c2)OCCO3)c1 [compound 103, Ethyl 4-chloro-2-[3-[2,3-dihydro-1,4-benzodioxin-6-yl (methyl)carbamoyl]phenyl]-5-methyl-pyrazole-3-carboxylate]",< 1000 nM
2,"Cc1nn(-c2cc(C(=O)N(C)c3ccc4c(c3)OCO4)ccc2C(F)(F)F)c(C)c1Cl [compound 071, N-(1,3-Benzodioxol-5-yl)-3-(4-chloro-3,5-dimethyl-pyrazol-1-yl)-N-methyl-4-(trifluoromethyl)benzamide]",> 2000 nM
3,"Cc1nc2cc(F)c(NC(=O)c3cccc(-n4nc(C(F)(F)F)c(Cl)c4C)c3)cc2o1 [Int-153, 3-[4-Chloro-5-methyl-3-(trifluoromethyl)pyrazol-1-yl]-N-(5-fluoro-2-methyl-1,3-benzoxazol-6-yl)benzamide]",< 1000 nM
4,"Cc1c(Cl)c(CO)nn1-c1cccc(C(=O)N(C)c2ccc3c(c2)OCO3)c1 [compound 073, N-(1,3-Benzodioxol-5-yl)-3-[4-chloro-3-(hydroxylmethyl)-5-methyl-pyrazol-1-yl]-N-methyl-benzamide]",> 2000 nM
5,"CCc1cc(CC)n(-c2cccc(C(=O)N(C)c3ccc4c(c3)OCO4)c2)n1 [compound 093, N-(1,3-Benzodioxol-5-yl)-3-(3,5-diethylpyrazol-1-yl)-N-methyl-benzamide]",1000 to 2000 nM
6,"Cc1nc2cc(Cl)c(N(C)C(=O)c3cccc(-n4nc(C(F)(F)F)c(Cl)c4C)c3)cc2o1 [compound 123, N-(5-Chloro-2-methyl-1,3-benzoxazol-6-yl)-3-[4-chloro-5-methyl-3-(trifluoromethyl)pyrazol-1-yl]-N-methyl-benzamide]",< 1000 nM
7,"Cc1nn(-c2cccc(C(=O)N(C)c3ccc4c(c3)NCCO4)c2)c(C)c1Cl [compound 038, 3-(4-Chloro-3,5-dimethyl-pyrazol-1-yl)-N-(3,4-dihydro-2H-1,4-benzoxazin-4-ium-6-yl)-N-methyl-benzamide 2,2,2-trifluoroacetate]",> 2000 nM
8,"Cc1cc(C)n(-c2cccc(C(=O)N(C)c3ccc4c(c3)OCCO4)c2)n1 [compound 011, N-(2,3-Dihydro-1,4-benzodioxin-6-yl)-3-(3,5-dimethylpyrazol-1-yl)-N-methyl-benzamide]",> 2000 nM
9,"Cc1cc(C)n(-c2cccc(S(=O)(=O)N(C)c3ccc4c(c3)OCCO4)c2)n1 [compound 017, N-(2,3-dihydro-1,4-benzodioxin-6-yl)-3-(3,5-dimethylpyrazol-1-yl)-N-methyl-benzenesulfonamide]",> 2000 nM
10,"Cc1c(Cl)c(C(F)(F)F)nn1-c1cccc(C(=O)N(C)c2ccc3c(c2)OC(F)(F)O3)c1 [compound 095, 3-[4-Chloro-5-methyl-3-(trifluoromethyl)pyrazol-1-yl]-N-(2,2-difluoro-1,3-benzodioxol-5-yl)-N-methyl-benzamide]",< 1000 nM

# Next, values leading:
row,EC50,Compound
1,< 1000 nM,"Cc1nc2cc(F)c(N(C)C(=O)c3cccc(-n4nc(C(F)(F)F)cc4OCc4ccc(C(=O)OC(C)(C)C)cc4)c3)cc2o1 [compound 189, Tert-butyl 4-[[2-[3-[(5-fluoro-2-methyl-1,3-benzoxazol-6-yl)-methyl-carbamoyl]phenyl]-5-(trifluoromethyl)pyrazol-3-yl]oxymethyl]benzoate]"
2,> 2000 nM,"Cc1nc2ccc(NC(=O)c3cccc(-n4nc(C(F)(F)F)c(Cl)c4COc4ccc(C(=O)OC(C)(C)C)cc4)c3)cn2n1 [compound 173, tert-Butyl 4-[[4-chloro-2-[3-[(2-methyl-[1,2,4]triazolo[1,5-a]pyridin-6-yl)carbamoyl]phenyl]-5-(trifluoromethyl)pyrazol-3-yl]methoxy]benzoate]"
3,1000 to 2000 nM,"Cc1c(Cl)c(C(F)(F)F)nn1-c1cccc(C(=O)N(C)c2cc3c(cc2CO)OCO3)c1 [compound 168, 3-[4-chloro-5-methyl-3-(trifluoromethyl)pyrazol-1-yl]-N-[6-(hydroxymethyl)-1,3-benzodioxol-5-yl]-N-methyl-benzamide]"
4,< 1000 nM,"CN(C(=O)c1cccc(-n2nc(C(F)(F)F)cc2OCc2ccc(C(=O)OC(C)(C)C)cc2)c1)c1ccc2c(c1)OC(F)(F)O2 [compound 191, Tert-butyl 4-[[2-[3-[(2,2-difluoro-1,3-benzodioxol-5-yl)-methyl-carbamoyl]phenyl]-5-(trifluoromethyl)pyrazol-3-yl]oxymethyl]benzoate]"
5,< 1000 nM,"CN(C(=O)c1cccc(-n2nc(C(F)(F)F)cc2OC2CCC(C(=O)O)CC2)c1)c1ccc2c(c1)OCO2 (mixture of isomers) [compound 215, 4-[2-[3-[1,3-benzodioxol-5-yl(methyl)carbamoyl]phenyl]-5-(trifluoromethyl)pyrazol-3-yl]oxycyclohexane carboxylic acid]"
6,< 1000 nM,"CN(C(=O)c1cccc(-n2nc(C(F)(F)F)cc2OCCc2ccccc2)c1)c1ccc2c(c1)OCO2 [compound 133, N-(1,3-Benzodioxol-5-yl)-N-methyl-3-[5-phenethyloxy-3-(trifluoromethyl)pyrazol-1-yl]benzamide]"
7,< 1000 nM,"CN(C(=O)c1cccc(-n2nc(C(F)(F)F)c(Cl)c2COc2ccc(C(=O)O)cc2)c1)c1ccc2c(c1)OCO2 [compound 151, 4-[[2-[3-[1,3-benzodioxol-5-yl(methyl)carbamoyl]phenyl]-4-chloro-5-(trifluoromethyl)pyrazol-3-yl]methoxy]benzoic acid]"
8,> 2000 nM,"Cc1c(Cl)c(C(F)(F)F)nn1-c1cccc(C(=O)N(C)c2ccc3c(c2C=O)OCO3)c1 [compound 207, 3-[4-chloro-5-methyl-3-(trifluoromethyl)pyrazol-1-yl]-N-(4-formyl-1,3-benzodioxol-5-yl)-N-methyl-benzamide]"
9,1000 to 2000 nM,"CN(C(=O)c1cccc(-n2nc(C(F)(F)F)cc2OC2CCN(C(=O)CCC(=O)O)CC2)c1)c1ccc2c(c1)OC(F)(F)O2 [compound 264, 4-[4-[2-[3-[(2,2-Difluoro-1,3-benzodioxol-5-yl)-methyl-carbamoyl]phenyl]-5-(trifluoromethyl)pyrazol-3-yl]oxy-1-piperidyl]-4-oxo-butanoic acid]"
10,< 1000 nM,"CN(C(=O)c1cccc(-n2nc(C(F)(F)F)c(Cl)c2COc2cnc(C(=O)O)cn2)c1)c1ccc2c(c1)OC(F)(F)O2 [compound 226, 5-[[4-Chloro-2-[3-[(2,2-difluoro-1,3-benzodioxol-5-yl)-methyl-carbamoyl]phenyl]-5-(trifluoromethyl)pyrazol-3-yl]methoxy]pyrazine-2-carboxylic acid]"
11,< 1000 nM,"Cc1nc2ccc(N(C)C(=O)c3cccc(-n4nc(C(F)(F)F)c(Cl)c4COc4ccc(C(=O)O)cc4)c3)cc2o1 [compound 233, 4-[[4-Chloro-2-[3-[methyl-(2-methyl-1,3-benzoxazol-6-yl)carbamoyl]phenyl]-5-(trifluoromethyl)pyrazol-3-yl]methoxy]benzoic acid]"
12,< 1000 nM,"Cc1nc2cc(Cl)c(N(C)C(=O)c3cccc(-n4nc(C(F)(F)F)c(Cl)c4C4CC4)c3)cc2o1 [compound 139, 3-[4-Chloro-5-cyclopropyl-3-(trifluoromethyl)pyrazol-1-yl]-N-(5-chloro-2-methyl-1,3-benzoxazol-6-yl)-N-methyl-benzamide]"
13,< 1000 nM,"Cc1c(C#N)c(C(F)(F)F)nn1-c1cccc(C(=O)N(C)c2ccc3c(c2)OCO3)c1 [compound 187, N-(1,3-Benzodioxol-5-yl)-3-[4-cyano-5-methyl-3-(trifluoromethyl)pyrazol-1-yl]-N-methyl-benzamide]"
